From the NIST ThermoML archive (doi:10.1021/je301301j)

Test: molar heat capacity at constant pressure; xn = mol fraction of the nth substance listed
Settings: 293.15 K, Liquid, Flow calorimetry

C=CCCCC [hex-1-ene] + CCCCO
molar heat capacity at constant pressure [J/K/mol]
Settings | x2 = 0 | x2 = 0.1001 | x2 = 0.2 | x2 = 0.3002 | x2 = 0.3999 | x2 = 0.5018 | x2 = 0.5997 | x2 = 0.7002 | x2 = 0.7999 | x2 = 0.9
100 kPa | 179.2 | 190.4 | 191.6 | 192.1 | 188.5 | 187.6 | 184.9 | 182.6 | 178.7 | 176.2
5000 kPa | 174.9 | 187.5 | 188.7 | 189 | 186.7 | 185.6 | 183.1 | 180 | 177.5 | 175.7
10000 kPa | 172.7 | 184.7 | 186.3 | 186.4 | 184 | 183.6 | 180.6 | 178.7 | 175.1 | 174
15000 kPa | 169.9 | 182.6 | 183.1 | 185.1 | 182.5 | 182.1 | 178.5 | 177.1 | 173.8 | 172.1
20000 kPa | 168.1 | 178.4 | 179.9 | 182.8 | 180.1 | 179.8 | 176.1 | 175.8 | 172.4 | 170.7
25000 kPa | 165.7 | 176.7 | 178 | 180.1 | 178.8 | 178 | 174.8 | 173.5 | 170.7 | 169.3
